Eleven molecules from ChEMBL document CHEMBL1909046, “DrugMatrix in vitro pharmacology data” can be followed below.

pIC50, pKi: −log10 of the molar value.

Chain of Cytochrome P450 2D6 (P10635 whole entry): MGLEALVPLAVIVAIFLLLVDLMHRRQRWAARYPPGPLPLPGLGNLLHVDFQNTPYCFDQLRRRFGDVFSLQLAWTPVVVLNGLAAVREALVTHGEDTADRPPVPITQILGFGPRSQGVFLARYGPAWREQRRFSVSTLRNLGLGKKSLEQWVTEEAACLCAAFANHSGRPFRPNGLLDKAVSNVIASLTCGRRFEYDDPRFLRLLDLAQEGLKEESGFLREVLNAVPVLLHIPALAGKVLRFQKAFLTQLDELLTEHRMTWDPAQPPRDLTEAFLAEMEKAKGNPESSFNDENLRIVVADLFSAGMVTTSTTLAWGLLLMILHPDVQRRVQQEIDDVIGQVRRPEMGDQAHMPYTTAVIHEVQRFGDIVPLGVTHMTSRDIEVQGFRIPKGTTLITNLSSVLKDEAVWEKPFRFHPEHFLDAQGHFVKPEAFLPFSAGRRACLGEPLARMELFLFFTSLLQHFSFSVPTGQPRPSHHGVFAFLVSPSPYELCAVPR
Chain of Estrogen receptor beta (Q92731 whole entry): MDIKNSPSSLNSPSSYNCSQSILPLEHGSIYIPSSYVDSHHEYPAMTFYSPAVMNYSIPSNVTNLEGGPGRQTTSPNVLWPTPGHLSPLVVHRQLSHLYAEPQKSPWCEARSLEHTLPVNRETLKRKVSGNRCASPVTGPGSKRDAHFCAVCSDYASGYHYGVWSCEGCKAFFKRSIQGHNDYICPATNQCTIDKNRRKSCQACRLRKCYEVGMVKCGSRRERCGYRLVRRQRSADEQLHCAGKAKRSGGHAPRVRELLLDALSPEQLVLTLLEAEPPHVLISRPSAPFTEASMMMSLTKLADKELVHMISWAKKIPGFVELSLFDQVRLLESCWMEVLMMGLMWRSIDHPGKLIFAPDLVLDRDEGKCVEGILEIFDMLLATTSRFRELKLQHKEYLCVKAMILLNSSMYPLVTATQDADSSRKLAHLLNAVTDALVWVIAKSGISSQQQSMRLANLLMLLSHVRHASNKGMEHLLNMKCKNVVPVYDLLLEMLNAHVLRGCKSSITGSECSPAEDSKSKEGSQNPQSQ
Chain of Kappa-type opioid receptor (P41145 whole entry): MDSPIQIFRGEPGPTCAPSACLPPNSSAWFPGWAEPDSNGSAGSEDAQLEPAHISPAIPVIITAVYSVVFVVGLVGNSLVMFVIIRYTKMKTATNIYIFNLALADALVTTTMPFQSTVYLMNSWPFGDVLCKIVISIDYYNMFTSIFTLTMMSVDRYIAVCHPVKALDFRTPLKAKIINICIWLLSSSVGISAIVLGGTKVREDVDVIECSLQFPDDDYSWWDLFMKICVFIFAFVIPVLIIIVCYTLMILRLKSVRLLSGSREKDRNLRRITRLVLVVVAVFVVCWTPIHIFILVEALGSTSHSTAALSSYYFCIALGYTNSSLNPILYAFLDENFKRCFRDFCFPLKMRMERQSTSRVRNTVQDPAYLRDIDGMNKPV

The first series has as its target Kappa-type opioid receptor (Homo sapiens, UniProt P41145). As to the kind of experiment: DRUGMATRIX: Opiate kappa (OP2, KOP) radioligand binding (ligand: [3H] Diprenorphine). The note with it: hek293; Not Active = under 50% inhibition at 10 µM. It is filed as cell membranes, HEK293, Membrane.
With `Cc1c(OCC(F)(F)F)ccnc1C[S+]([O-])c1nc2ccccc2[nH]1` (stereo not given) [LANSOPRAZOLE], the IC50 result is on record as “Not Active”.
With `CC(C)NCC(O)COc1cccc2[nH]ccc12` (stereo not given) [PINDOLOL], the IC50 result is “Not Active”.
Regarding `CCCNCC(O)COc1ccccc1C(=O)CCc1ccccc1` (stereo not given) [PROPAFENONE], the IC50 entry is listed as “Not Active”.

Another series has as its target Cytochrome P450 2D6 (Homo sapiens, UniProt P10635). The note with it: bti-tn-5b1-4. Note: in other assays of this panel Not Active means under 50% inhibition at 10 µM.
Regarding `C[C@@H](CO)NC(=O)[C@@H]1C=C2c3cccc4[nH]cc(c34)C[C@H]2N(C)C1` [ERGONOVINE], the IC50 entry was “Not Active” and the Ki entry is “Not Active”.
Turning to `C[n+]1ccc(-c2cc[n+](C)cc2)cc1.[Cl-].[Cl-]` [PARAQUAT DICHLORIDE], the IC50 result is reported as “Not Active” and the Ki entry is recorded as “Not Active”.
As for `C[C@@H]1O[C@@H](O[C@@H]2C=C3CC[C@@H]4[C@H](CC[C@]5(C)[C@@H](c6ccc(=O)oc6)CC[C@]45O)[C@@]3(C)CC2)[C@H](O)[C@H](O)[C@H]1O` [PROSCILLARIDIN], the IC50 entry is given as “Not Active” and the Ki result is “Not Active”.
For AURANOFIN, the IC50 result is “Not Active” and the Ki entry is listed as “Not Active”.
Turning to GADOPENTETATE DIMEGLUMINE, the IC50 entry was “Not Active” and the Ki result was “Not Active”.
Consider GENTAMICIN, for which the IC50 result is “Not Active” and the Ki result is recorded as “Not Active”.
As for GRAMICIDIN, the IC50 entry is listed as “Not Active” and the Ki entry is reported as “Not Active”.
In the case of NYSTATIN, the IC50 result is on record as “Not Active” and the Ki result was “Not Active”.

The target in another series is T1, C-C chemokine receptor type 4 (Homo sapiens, UniProt P51679). Note: in other assays of this panel Not Active means under 50% inhibition at 10 µM.
T1 sequence (P51679 whole entry): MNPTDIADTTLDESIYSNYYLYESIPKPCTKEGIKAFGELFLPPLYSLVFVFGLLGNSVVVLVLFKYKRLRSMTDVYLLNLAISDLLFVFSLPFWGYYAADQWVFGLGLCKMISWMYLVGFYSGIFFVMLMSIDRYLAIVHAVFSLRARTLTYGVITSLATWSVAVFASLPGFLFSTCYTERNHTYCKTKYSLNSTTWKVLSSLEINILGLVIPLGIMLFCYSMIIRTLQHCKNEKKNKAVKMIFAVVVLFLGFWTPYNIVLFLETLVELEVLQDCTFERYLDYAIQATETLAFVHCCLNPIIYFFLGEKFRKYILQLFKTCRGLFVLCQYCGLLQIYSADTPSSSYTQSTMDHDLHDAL
In kind it is cell membranes, Membrane. The settings on record: chem-1.
Consider `C[C@@H](CO)NC(=O)[C@@H]1C=C2c3cccc4[nH]cc(c34)C[C@H]2N(C)C1` [ERGONOVINE], for which the IC50 entry is on record as “Not Active”.
For `Cc1c(OCC(F)(F)F)ccnc1C[S+]([O-])c1nc2ccccc2[nH]1` (stereo not given) [LANSOPRAZOLE], the IC50 entry is given as “Not Active”.
`C[n+]1ccc(-c2cc[n+](C)cc2)cc1.[Cl-].[Cl-]` [PARAQUAT DICHLORIDE]: the IC50 result is listed as “Not Active”.
Same read-out and setting: next, `CC(C)NCC(O)COc1cccc2[nH]ccc12` (stereo not given) [PINDOLOL]: “Not Active”; `CCCNCC(O)COc1ccccc1C(=O)CCc1ccccc1` (stereo not given) [PROPAFENONE]: “Not Active”.
With `C[C@@H]1O[C@@H](O[C@@H]2C=C3CC[C@@H]4[C@H](CC[C@]5(C)[C@@H](c6ccc(=O)oc6)CC[C@]45O)[C@@]3(C)CC2)[C@H](O)[C@H](O)[C@H]1O` [PROSCILLARIDIN], the IC50 entry is “Not Active”.
Turning to AURANOFIN, the IC50 entry is “Not Active” and the Ki entry was “Not Active”.
Regarding GADOPENTETATE DIMEGLUMINE, the IC50 entry is on record as “Not Active” and the Ki entry was “Not Active”.
With GENTAMICIN, the IC50 entry is “Not Active” and the Ki entry is reported as “Not Active”.
As for GRAMICIDIN, the IC50 entry is reported as “Not Active” and the Ki result is given as “Not Active”.
As to NYSTATIN, the IC50 result is “Not Active” and the Ki entry is on record as “Not Active”.

In another series the target is 5-hydroxytryptamine receptor 2B (Homo sapiens, UniProt P41595). In kind it is cell membranes, CHO-K1, Membrane. The note with it: cho-k1. Note: in other assays of this panel Not Active means under 50% inhibition at 10 µM.
Chain of 5-hydroxytryptamine receptor 2B (P41595 whole entry): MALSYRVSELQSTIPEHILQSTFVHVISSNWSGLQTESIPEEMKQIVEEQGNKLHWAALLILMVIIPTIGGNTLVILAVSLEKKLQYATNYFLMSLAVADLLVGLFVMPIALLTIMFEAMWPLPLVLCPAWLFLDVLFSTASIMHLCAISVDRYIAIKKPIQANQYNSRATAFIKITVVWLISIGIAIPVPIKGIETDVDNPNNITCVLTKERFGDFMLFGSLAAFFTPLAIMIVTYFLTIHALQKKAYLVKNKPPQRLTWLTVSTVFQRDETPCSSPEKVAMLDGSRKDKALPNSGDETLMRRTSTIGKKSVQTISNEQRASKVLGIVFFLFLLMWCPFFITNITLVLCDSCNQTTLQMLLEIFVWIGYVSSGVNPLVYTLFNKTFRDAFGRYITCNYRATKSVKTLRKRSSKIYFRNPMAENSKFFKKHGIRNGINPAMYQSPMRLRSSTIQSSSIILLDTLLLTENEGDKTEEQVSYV
In the case of `Cc1c(OCC(F)(F)F)ccnc1C[S+]([O-])c1nc2ccccc2[nH]1` (stereo not given) [LANSOPRAZOLE], the IC50 entry is “Not Active”.
On the same count and under the same terms, next, `C[n+]1ccc(-c2cc[n+](C)cc2)cc1.[Cl-].[Cl-]` [PARAQUAT DICHLORIDE]: “Not Active”; `CC(C)NCC(O)COc1cccc2[nH]ccc12` (stereo not given) [PINDOLOL]: “Not Active”.
Still for that read-out and setting: next, `C[C@@H]1O[C@@H](O[C@@H]2C=C3CC[C@@H]4[C@H](CC[C@]5(C)[C@@H](c6ccc(=O)oc6)CC[C@]45O)[C@@]3(C)CC2)[C@H](O)[C@H](O)[C@H]1O` [PROSCILLARIDIN]: “Not Active”.
Regarding AURANOFIN, the IC50 result was “Not Active” and the Ki result is recorded as “Not Active”.
Consider GADOPENTETATE DIMEGLUMINE, for which the IC50 result is recorded as “Not Active” and the Ki entry is “Not Active”.
In the case of GENTAMICIN, the IC50 entry is listed as “Not Active” and the Ki entry is “Not Active”.
GRAMICIDIN: the IC50 result is “Not Active” and the Ki entry is “Not Active”.
Regarding NYSTATIN, the IC50 entry is reported as “Not Active” and the Ki result is recorded as “Not Active”.

The same series, now with this note: read-out: IC50.
Usually pIC50 stands for the IC50 on a negative log10 scale, so that one unit is a factor of ten. On to `C[C@@H](CO)NC(=O)[C@@H]1C=C2c3cccc4[nH]cc(c34)C[C@H]2N(C)C1` [ERGONOVINE], for which the pIC50 is 8.38.

Still in this series, the particulars now being: read-out: Ki.
A word on the pKi: it is the negative decadic logarithm of the Ki, by convention in mol/L. For the molecule `C[C@@H](CO)NC(=O)[C@@H]1C=C2c3cccc4[nH]cc(c34)C[C@H]2N(C)C1` [ERGONOVINE], the pKi was 8.58.

A further series deals with Sigma non-opioid intracellular receptor 1 (Homo sapiens, UniProt Q99720). As to the kind of experiment: DRUGMATRIX: Sigma1 radioligand binding (ligand: [3H] Haloperidol). In kind it is cell membranes, Jurkat, Membrane. The note with it: Not Active = under 50% inhibition at 10 µM; read-out: IC50.
Chain of Sigma non-opioid intracellular receptor 1 (Q99720 whole entry): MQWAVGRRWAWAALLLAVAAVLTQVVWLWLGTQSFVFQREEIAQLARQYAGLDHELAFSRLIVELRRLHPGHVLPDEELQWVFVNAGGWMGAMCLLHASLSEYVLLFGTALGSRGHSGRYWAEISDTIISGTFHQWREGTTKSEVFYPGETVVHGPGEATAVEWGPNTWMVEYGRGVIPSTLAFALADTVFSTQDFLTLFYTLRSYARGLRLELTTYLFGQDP
Regarding `CCCNCC(O)COc1ccccc1C(=O)CCc1ccccc1` (stereo not given) [PROPAFENONE], the negative-log IC50 (pIC50) was 5.58.

Still in this series, the particulars now being: Not Active = under 50% inhibition at 10 µM; read-out: Ki.
`CCCNCC(O)COc1ccccc1C(=O)CCc1ccccc1` (stereo not given) [PROPAFENONE]: the negative-log Ki (pKi) was 5.96.

Staying with this series, now noted: jurkat; Not Active = under 50% inhibition at 10 µM.
Turning to `C[C@@H](CO)NC(=O)[C@@H]1C=C2c3cccc4[nH]cc(c34)C[C@H]2N(C)C1` [ERGONOVINE], the IC50 entry was “Not Active”.
Same read-out and setting: next, `Cc1c(OCC(F)(F)F)ccnc1C[S+]([O-])c1nc2ccccc2[nH]1` (stereo not given) [LANSOPRAZOLE]: “Not Active”; `C[n+]1ccc(-c2cc[n+](C)cc2)cc1.[Cl-].[Cl-]` [PARAQUAT DICHLORIDE]: “Not Active”; `CC(C)NCC(O)COc1cccc2[nH]ccc12` (stereo not given) [PINDOLOL]: “Not Active”.
On the same count and under the same terms, next, `C[C@@H]1O[C@@H](O[C@@H]2C=C3CC[C@@H]4[C@H](CC[C@]5(C)[C@@H](c6ccc(=O)oc6)CC[C@]45O)[C@@]3(C)CC2)[C@H](O)[C@H](O)[C@H]1O` [PROSCILLARIDIN]: “Not Active”.
With AURANOFIN, the IC50 result is “Not Active” and the Ki entry is “Not Active”.
GADOPENTETATE DIMEGLUMINE: the IC50 entry is listed as “Not Active” and the Ki entry is “Not Active”.
For the molecule GENTAMICIN, the IC50 result is given as “Not Active” and the Ki entry is “Not Active”.
For the molecule GRAMICIDIN, the IC50 result is recorded as “Not Active” and the Ki entry is given as “Not Active”.
Regarding NYSTATIN, the IC50 result is given as “Not Active” and the Ki entry is “Not Active”.

The next series addresses T2, Neuropeptide Y receptor type 1 (Homo sapiens, UniProt P25929).
T2 sequence (P25929 whole entry): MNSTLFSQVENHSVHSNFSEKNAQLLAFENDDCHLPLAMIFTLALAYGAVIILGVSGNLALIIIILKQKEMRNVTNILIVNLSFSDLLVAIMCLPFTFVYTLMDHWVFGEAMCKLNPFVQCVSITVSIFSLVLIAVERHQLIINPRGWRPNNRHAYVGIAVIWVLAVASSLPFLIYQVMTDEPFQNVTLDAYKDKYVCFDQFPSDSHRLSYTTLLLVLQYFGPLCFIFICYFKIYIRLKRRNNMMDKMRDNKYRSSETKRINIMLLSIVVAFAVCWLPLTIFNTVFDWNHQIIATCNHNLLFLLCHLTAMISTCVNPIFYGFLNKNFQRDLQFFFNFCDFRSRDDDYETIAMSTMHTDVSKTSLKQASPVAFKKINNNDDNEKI
It is filed as cell membranes, Membrane. The note with it: sk-n-mc.
With `C[C@@H](CO)NC(=O)[C@@H]1C=C2c3cccc4[nH]cc(c34)C[C@H]2N(C)C1` [ERGONOVINE], the IC50 result is on record as “Not Active”.
The same measure, in the same setting: next, `Cc1c(OCC(F)(F)F)ccnc1C[S+]([O-])c1nc2ccccc2[nH]1` (stereo not given) [LANSOPRAZOLE]: “Not Active”; `C[n+]1ccc(-c2cc[n+](C)cc2)cc1.[Cl-].[Cl-]` [PARAQUAT DICHLORIDE]: “Not Active”.
Take `CC(C)NCC(O)COc1cccc2[nH]ccc12` (stereo not given) [PINDOLOL]: the IC50 result is “Not Active”.
On the same count and under the same terms, next, `CCCNCC(O)COc1ccccc1C(=O)CCc1ccccc1` (stereo not given) [PROPAFENONE]: “Not Active”; `C[C@@H]1O[C@@H](O[C@@H]2C=C3CC[C@@H]4[C@H](CC[C@]5(C)[C@@H](c6ccc(=O)oc6)CC[C@]45O)[C@@]3(C)CC2)[C@H](O)[C@H](O)[C@H]1O` [PROSCILLARIDIN]: “Not Active”.
Turning to AURANOFIN, the IC50 entry is recorded as “Not Active” and the Ki result was “Not Active”.
GADOPENTETATE DIMEGLUMINE: the IC50 result was “Not Active” and the Ki result is on record as “Not Active”.
As for GENTAMICIN, the IC50 entry was “Not Active” and the Ki entry is recorded as “Not Active”.
Turning to GRAMICIDIN, the IC50 entry is “Not Active” and the Ki result is “Not Active”.
For the molecule NYSTATIN, the IC50 result is reported as “Not Active” and the Ki result is “Not Active”.

The next series addresses Estrogen receptor beta (Homo sapiens, UniProt Q92731). The settings on record: sf9.
Take `C[C@@H](CO)NC(=O)[C@@H]1C=C2c3cccc4[nH]cc(c34)C[C@H]2N(C)C1` [ERGONOVINE]: the IC50 entry is given as “Not Active”.
Regarding `Cc1c(OCC(F)(F)F)ccnc1C[S+]([O-])c1nc2ccccc2[nH]1` (stereo not given) [LANSOPRAZOLE], the IC50 result is “Not Active”.
On the same count and under the same terms, next, `C[n+]1ccc(-c2cc[n+](C)cc2)cc1.[Cl-].[Cl-]` [PARAQUAT DICHLORIDE]: “Not Active”; `CC(C)NCC(O)COc1cccc2[nH]ccc12` (stereo not given) [PINDOLOL]: “Not Active”.
On the same count and under the same terms, next, `CCCNCC(O)COc1ccccc1C(=O)CCc1ccccc1` (stereo not given) [PROPAFENONE]: “Not Active”; `C[C@@H]1O[C@@H](O[C@@H]2C=C3CC[C@@H]4[C@H](CC[C@]5(C)[C@@H](c6ccc(=O)oc6)CC[C@]45O)[C@@]3(C)CC2)[C@H](O)[C@H](O)[C@H]1O` [PROSCILLARIDIN]: “Not Active”.
Consider AURANOFIN, for which the IC50 result is “Not Active” and the Ki entry was “Not Active”.
Turning to GADOPENTETATE DIMEGLUMINE, the IC50 entry was “Not Active” and the Ki entry is given as “Not Active”.
As to GENTAMICIN, the IC50 result was “Not Active” and the Ki result is listed as “Not Active”.
As for GRAMICIDIN, the IC50 entry was “Not Active” and the Ki entry is “Not Active”.
In the case of NYSTATIN, the IC50 entry was “Not Active” and the Ki result was “Not Active”.
